Laboratory results taken from article PMC9127750, “Structure-based design of CDC42 effector interaction inhibitors for the treatment of cancer” (Cell reports, 2022).
Several values for one entry are separate records, joined by “and”; a condition that tells them apart may be missing. Identical values can stand only once.

System: WM3248 melanoma cells, 486 antibodies
Experiment: Reverse phase protein arrays (RPPA)
Format: cell-based, Human
Excerpt: Pellets were snap frozen in liquid nitrogen and shipped to MD Anderson Cancer Center core RPPA facility for RPPA analysis (Table S5). Three biological replicates for each sample were generated.
Nomenclatures on the RPPA heatmaps: name_of_antibody.species_of_antibody.status_of_antibody. V - antibody validated; C - validation of antibody in progress; Q - antibody nonspecific; E – under evaluation; antibodies raised in M - mouse, G - goat, R - rabbit, or T - rat.

Question: `CN(C)c1cccc(Nc2cc(-c3ccccc3)nc(C3CCNCC3)n2)c1` [ARN22089, N1,N1-dimethyl-N3-(6-phenyl-2-(piperidin-4-yl)pyrimidin-4-yl)benzene-1,3-diamine] was tested. Which Caspase.8.cleaved.R.C normalized signal (Norm_5 Average) did it give?
Answer: The Caspase.8.cleaved.R.C normalized signal was 0.982.

Question: What about the Caveolin.1.R.V normalized signal (Norm_5 Average) of the same compound?
Answer: Its Caveolin.1.R.V normalized signal is 0.855.

Question: What about the Cdc6.R.V normalized signal (Norm_5 Average) of the same compound?
Answer: The Cdc6.R.V normalized signal was 0.979.

Question: And the Cdc42.R.C normalized signal (Norm_5 Average)?
Answer: Its Cdc42.R.C normalized signal is 1.009.

Question: And the Chk1.M.C normalized signal (Norm_5 Average)?
Answer: Its Chk1.M.C normalized signal is 0.909.

Question: What about the Chk2.M.V normalized signal (Norm_5 Average) of the same compound?
Answer: Its Chk2.M.V normalized signal is 0.853.

Question: What about the Chk2_pT68.R.C normalized signal (Norm_5 Average) of the same compound?
Answer: Its Chk2_pT68.R.C normalized signal is 1.060.

Question: And the Claudin.7.R.V normalized signal (Norm_5 Average)?
Answer: The Claudin.7.R.V normalized signal was 0.926.

Question: And the Collagen.VI.R.V normalized signal (Norm_5 Average)?
Answer: Its Collagen.VI.R.V normalized signal is 1.116.

Question: And the Complex.II.Subunit.M.V normalized signal (Norm_5 Average)?
Answer: The Complex.II.Subunit.M.V normalized signal was 0.975.

Question: And the Cox2.R.C normalized signal (Norm_5 Average)?
Answer: Its Cox2.R.C normalized signal is 1.135.

Question: And the Cox.IV.R.V normalized signal (Norm_5 Average)?
Answer: The Cox.IV.R.V normalized signal was 1.022.

Question: What about the CtIP.R.V normalized signal (Norm_5 Average) of the same compound?
Answer: Its CtIP.R.V normalized signal is 0.975.

Question: What about the Cyclin.B1.R.V normalized signal (Norm_5 Average) of the same compound?
Answer: The Cyclin.B1.R.V normalized signal was 0.972.

Question: What about the Cyclin.D3.M.V normalized signal (Norm_5 Average) of the same compound?
Answer: The Cyclin.D3.M.V normalized signal was 0.904.

Question: What about the Cyclin.E1.R.V normalized signal (Norm_5 Average) of the same compound?
Answer: The Cyclin.E1.R.V normalized signal was 0.936.

Question: What about the DAPK1_pS308.M.C normalized signal (Norm_5 Average) of the same compound?
Answer: The DAPK1_pS308.M.C normalized signal was 1.256.

Question: What about the DDB.1.R.V normalized signal (Norm_5 Average) of the same compound?
Answer: Its DDB.1.R.V normalized signal is 1.059.

Question: What about the DDR1_pY513.R.C normalized signal (Norm_5 Average) of the same compound?
Answer: The DDR1_pY513.R.C normalized signal was 0.981.

Question: And the DM.K9.Histone.H3.M.V normalized signal (Norm_5 Average)?
Answer: The DM.K9.Histone.H3.M.V normalized signal was 0.933.

Question: And the DNA.Ligase.IV.R.C normalized signal (Norm_5 Average)?
Answer: Its DNA.Ligase.IV.R.C normalized signal is 1.034.

Question: What about the DNA_POLG.R.V normalized signal (Norm_5 Average) of the same compound?
Answer: Its DNA_POLG.R.V normalized signal is 0.987.

Question: And the c.Jun_pS73.R.V normalized signal (Norm_5 Average)?
Answer: Its c.Jun_pS73.R.V normalized signal is 0.785.

Question: And the c.Met_pY1234_Y1235.R.V normalized signal (Norm_5 Average)?
Answer: Its c.Met_pY1234_Y1235.R.V normalized signal is 1.005.

Question: And the c.Myc.R.C normalized signal (Norm_5 Average)?
Answer: Its c.Myc.R.C normalized signal is 1.002.

Question: What about the cdc2_pY15.R.C normalized signal (Norm_5 Average) of the same compound?
Answer: Its cdc2_pY15.R.C normalized signal is 1.020.

Question: And the cdc25C.R.V normalized signal (Norm_5 Average)?
Answer: The cdc25C.R.V normalized signal was 0.901.

Question: And the C.Raf.R.C normalized signal (Norm_5 replicates)?
Answer: Its C.Raf.R.C normalized signal is 0.928 and 0.922 and 1.015.

Question: What about the C.Raf_pS338.R.V normalized signal (Norm_5 replicates) of the same compound?
Answer: The C.Raf_pS338.R.V normalized signal was 1.100 and 1.059 and 1.133.

Question: And the CA9.R.C normalized signal (Norm_5 replicates)?
Answer: Its CA9.R.C normalized signal is 0.890 and 0.944 and 0.999.

Question: And the CD2.M.C normalized signal (Norm_5 replicates)?
Answer: Its CD2.M.C normalized signal is 0.910 and 0.933 and 1.035.

Question: What about the CD4.R.V normalized signal (Norm_5 replicates) of the same compound?
Answer: The CD4.R.V normalized signal was 1.047 and 1.004 and 1.101.

Question: What about the CD5.M.C normalized signal (Norm_5 replicates) of the same compound?
Answer: The CD5.M.C normalized signal was 0.985 and 1.051.

Question: And the CD20.R.C normalized signal (Norm_5 replicates)?
Answer: The CD20.R.C normalized signal was 0.992 and 1.004 and 0.765.

Question: And the CD26.R.V normalized signal (Norm_5 replicates)?
Answer: The CD26.R.V normalized signal was 0.918 and 1.107 and 0.927.

Question: What about the CD29.M.V normalized signal (Norm_5 replicates) of the same compound?
Answer: Its CD29.M.V normalized signal is 0.891 and 0.950 and 1.049.

Question: And the CD31.M.V normalized signal (Norm_5 replicates)?
Answer: The CD31.M.V normalized signal was 0.904 and 0.900 and 1.048.

Question: What about the CD38.R.C normalized signal (Norm_5 replicates) of the same compound?
Answer: The CD38.R.C normalized signal was 0.928.

Question: What about the CD44.R.C normalized signal (Norm_5 replicates) of the same compound?
Answer: The CD44.R.C normalized signal was 0.917 and 1.058 and 0.855.

Question: What about the CD45.M.V normalized signal (Norm_5 replicates) of the same compound?
Answer: Its CD45.M.V normalized signal is 0.930 and 1.021.

Question: What about the CD49b.M.V normalized signal (Norm_5 replicates) of the same compound?
Answer: Its CD49b.M.V normalized signal is 0.968 (2×) and 1.000.

Question: What about the CD68.M.C normalized signal (Norm_5 replicates) of the same compound?
Answer: The CD68.M.C normalized signal was 0.960 and 0.996 and 0.977.

Question: What about the CD74.M.V normalized signal (Norm_5 replicates) of the same compound?
Answer: The CD74.M.V normalized signal was 0.856 and 0.898 and 1.027.

Question: And the CD134.R.V normalized signal (Norm_5 replicates)?
Answer: The CD134.R.V normalized signal was 0.925 and 0.944.

Question: And the CD171.M.V normalized signal (Norm_5 replicates)?
Answer: Its CD171.M.V normalized signal is 0.619 and 0.917 and 0.812.

Question: What about the CDK1_pT14.R.C normalized signal (Norm_5 replicates) of the same compound?
Answer: Its CDK1_pT14.R.C normalized signal is 0.861 and 1.206.

Question: And the CDK9.R.V normalized signal (Norm_5 replicates)?
Answer: Its CDK9.R.V normalized signal is 0.898 and 0.959 and 1.009.

Question: What about the CDKN2A.R.C normalized signal (Norm_5 replicates) of the same compound?
Answer: Its CDKN2A.R.C normalized signal is 0.913 and 0.846 and 1.064.

Question: What about the CDT1.R.V normalized signal (Norm_5 replicates) of the same compound?
Answer: Its CDT1.R.V normalized signal is 0.876 and 0.937.

Question: What about the CENP.A.R.V normalized signal (Norm_5 replicates) of the same compound?
Answer: Its CENP.A.R.V normalized signal is 0.837 and 1.027.

Question: And the CHD1L.R.V normalized signal (Norm_5 replicates)?
Answer: The CHD1L.R.V normalized signal was 0.984 and 0.980 and 1.062.

Question: What about the CIITA.R.C normalized signal (Norm_5 replicates) of the same compound?
Answer: Its CIITA.R.C normalized signal is 0.906 and 1.032 and 0.908.

Question: And the COG3.R.V normalized signal (Norm_5 replicates)?
Answer: Its COG3.R.V normalized signal is 1.065 and 1.046 and 1.027.

Question: What about the CRABP1.R.C normalized signal (Norm_5 replicates) of the same compound?
Answer: Its CRABP1.R.C normalized signal is 0.859 and 0.948.

Question: And the CRABP2.R.V normalized signal (Norm_5 replicates)?
Answer: The CRABP2.R.V normalized signal was 0.835 and 0.922.

Question: And the CREB_pS133.R.C normalized signal (Norm_5 replicates)?
Answer: Its CREB_pS133.R.C normalized signal is 0.973 and 1.049.

Question: And the CSK.R.C normalized signal (Norm_5 replicates)?
Answer: Its CSK.R.C normalized signal is 0.899 and 0.615.

Question: And the Calnexin.R.V normalized signal (Norm_5 replicates)?
Answer: Its Calnexin.R.V normalized signal is 0.886 and 0.995 and 1.007.

Question: And the Caspase.3.cleaved.R.C normalized signal (Norm_5 replicates)?
Answer: The Caspase.3.cleaved.R.C normalized signal was 1.021 and 1.056.

Question: And the Caspase.7.cleaved..R.C normalized signal (Norm_5 replicates)?
Answer: The Caspase.7.cleaved..R.C normalized signal was 0.975 and 1.120.

Question: And the Caspase.8.M.Q normalized signal (Norm_5 replicates)?
Answer: Its Caspase.8.M.Q normalized signal is 0.995 and 1.011.

Question: And the Caspase.8.cleaved.R.C normalized signal (Norm_5 replicates)?
Answer: Its Caspase.8.cleaved.R.C normalized signal is 0.959 and 0.968 and 1.018.

Question: What about the Caveolin.1.R.V normalized signal (Norm_5 replicates) of the same compound?
Answer: The Caveolin.1.R.V normalized signal was 0.695 and 1.083 and 0.788.

Question: And the Cdc6.R.V normalized signal (Norm_5 replicates)?
Answer: The Cdc6.R.V normalized signal was 1.013 and 0.837.

Question: And the Cdc42.R.C normalized signal (Norm_5 replicates)?
Answer: The Cdc42.R.C normalized signal was 0.983 and 0.959.

Question: What about the Chk1.M.C normalized signal (Norm_5 replicates) of the same compound?
Answer: Its Chk1.M.C normalized signal is 0.847 and 0.901 and 0.979.

Question: And the Chk1_pS296.R.V normalized signal (Norm_5 replicates)?
Answer: The Chk1_pS296.R.V normalized signal was 1.011 and 0.821 and 1.014.

Question: And the Chk1_pS345.R.C normalized signal (Norm_5 replicates)?
Answer: The Chk1_pS345.R.C normalized signal was 1.085 and 0.937.

Question: And the Chk2.M.V normalized signal (Norm_5 replicates)?
Answer: Its Chk2.M.V normalized signal is 0.877 and 0.935 and 0.746.

Question: What about the Chk2_pT68.R.C normalized signal (Norm_5 replicates) of the same compound?
Answer: The Chk2_pT68.R.C normalized signal was 1.018 and 1.050 and 1.112.

Question: And the Claudin.7.R.V normalized signal (Norm_5 replicates)?
Answer: The Claudin.7.R.V normalized signal was 0.960 and 0.997 and 0.822.

Question: And the Collagen.VI.R.V normalized signal (Norm_5 replicates)?
Answer: Its Collagen.VI.R.V normalized signal is 1.125 and 1.077 and 1.148.

Question: What about the Complex.II.Subunit.M.V normalized signal (Norm_5 replicates) of the same compound?
Answer: Its Complex.II.Subunit.M.V normalized signal is 0.952 and 1.023.

Question: And the Connexin.43.R.C normalized signal (Norm_5 replicates)?
Answer: The Connexin.43.R.C normalized signal was 1.236 and 0.956.

Question: What about the Coup.TFII.R.C normalized signal (Norm_5 replicates) of the same compound?
Answer: The Coup.TFII.R.C normalized signal was 1.082 and 1.017.

Question: And the Cox2.R.C normalized signal (Norm_5 replicates)?
Answer: The Cox2.R.C normalized signal was 1.108 and 1.155 and 1.142.

Question: What about the Cox.IV.R.V normalized signal (Norm_5 replicates) of the same compound?
Answer: Its Cox.IV.R.V normalized signal is 1.004 and 1.021.

Question: What about the Creb.R.C normalized signal (Norm_5 replicates) of the same compound?
Answer: Its Creb.R.C normalized signal is 1.017.

Question: What about the CtIP.R.V normalized signal (Norm_5 replicates) of the same compound?
Answer: The CtIP.R.V normalized signal was 1.022 and 0.990 and 0.914.

Question: What about the Cyclin.B1.R.V normalized signal (Norm_5 replicates) of the same compound?
Answer: Its Cyclin.B1.R.V normalized signal is 0.618 and 1.059 and 1.239.

Question: And the Cyclin.D1.R.C normalized signal (Norm_5 replicates)?
Answer: The Cyclin.D1.R.C normalized signal was 0.917 and 1.018.
